The values that follow come from PubChem BioAssay (NCI).

Structures are written as SMILES.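 All cell lines were grown in 96-well plates and treated with compound for 48 hours. GI50: concentration for 50% inhibition of growth. The concentration for full growth arrest is given as TGI.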

Assay in all cases: growth of human tumour cells (NCI), 48 h
The test system of assay [1] is SK-MEL-2 melanoma.
In assay [2] the test system is SN12C renal.
The subject of assay [3] is NCI/ADR-RES ovarian.
Assay [4] deals with A498 renal.
In assay [5] the test system is SF-295 CNS.
The test system of assay [6] is A549 NSCLC.
In assay [7] the test system is SNB-19 CNS.
Assay [8] deals with NCI-H522 lung.
The test system of assay [9] is OVCAR-8 ovarian.
Assay [10] has as its system SNB-75 CNS.

As to `COc1nc2c(c(=O)[nH]1)N=C(c1ccc([N+](=O)[O-])cc1)CC(c1ccccc1)N2` (stereo not given), the TGI in assay [1], in [2], in assay [3], in assay [4], in [5] and in [6] was greater than 100 µM throughout. Also, the TGI in assay [7], in assay [8], in [9] and in assay [10] was greater than 100 µM in each case.

`C[C@@H](NC(=O)Nc1cccc(C(=O)Nc2cc(C(C)(C)C)ccc2C(=O)O)n1)c1ccccc1`: the TGI was 39 µM in assay [1]; greater than 100 µM in assay [2]; greater than 100 µM in assay [3]; greater than 100 µM in assay [4]; 76.2 µM in assay [5]; greater than 100 µM in [6]. Also, the TGI in assay [7], in [8], in assay [9] and in [10] was greater than 100 µM each time.

Take `CCOC(=O)c1cn2c(n1)sc1cc([N+](=O)[O-])ccc12`: the TGI in [1], in [2], in assay [3], in assay [4], in assay [5] and in [6] was greater than 100 µM in each case. Further, the TGI in assay [7], in assay [8], in assay [9] and in [10] was greater than 100 µM in each case.

In the case of `CN(C)CCCCN1c2ccccc2Sc2ccc(N=[N+]=[N-])cc21`, the TGI in [1] is 9.66 µM; in [2], 22.2 µM; in [3], 23.3 µM; in assay [4] it was 21.5 µM; in assay [5] it was 17.8 µM; in [6], 22.6 µM. Besides, the TGI in assay [7] was 23.5 µM; in assay [8], 14.1 µM; in [9], 22.1 µM; in assay [10], 10 µM.

Turning to `CCOC(=O)c1sc(N)nc1N1CCCC1`, the TGI in assay [1], in [2], in [3], in assay [4], in assay [5] and in assay [6] was greater than 100 µM each time. For the same molecule, the TGI in assay [7], in assay [8], in [9] and in assay [10] was greater than 100 µM in each case.

Consider `O=c1[nH]c2ccccc2c(=O)c2cc3ccccc3cc12`, for which the TGI in [1] was greater than 100 µM; in assay [2] it was greater than 100 µM; in assay [3], greater than 100 µM; in assay [4], 48.4 µM; in assay [5], 53.9 µM; in [6], greater than 100 µM. In addition, the TGI in assay [7] came to 37.3 µM; in [8], 25.8 µM; in [9], 37.7 µM; in assay [10], 19.4 µM.

As to `COc1ccccc1Nc1nc(N)nc(N)c1N`, the TGI in [1] was greater than 100 µM; in [2], 32.7 µM; in [3], greater than 100 µM; in assay [4], greater than 100 µM; in assay [5], 68.5 µM; in assay [6] it was greater than 100 µM. For the same molecule, the TGI in assay [7] was greater than 100 µM; in [8] it was 67 µM; in assay [9], greater than 100 µM; in assay [10], greater than 100 µM.

On to `COc1cc(/C=C2\C(=O)Nc3ccc(O)cc32)cc(OC)c1OC`, for which the GI50 in assay [1] is 13.6 µM; in assay [2] it was 15.5 µM; in assay [3] it was 17.8 µM; in assay [4] it was 18.3 µM; in assay [5], 26.4 µM; in [6] it was 21 µM. For the same molecule, the GI50 is 11.9 µM in assay [7], 4.24 µM in [8], 18.3 µM in assay [9] and 8.54 µM in assay [10]. In addition, the TGI in assay [1] was 34.7 µM; in [2], 72.2 µM; in [3], 59 µM; in assay [4] it was 40.6 µM; in assay [5] it was greater than 100 µM; in assay [6], 88 µM. The TGI in assay [7] turned out to be 40.6 µM; in [8], 17.1 µM; in assay [9], 65.6 µM; in assay [10] it was 33.7 µM.

Consider `COc1ccc2nc3cc(Cl)ccc3c(NCCCN(C)CCCNc3ccc4ncn5c6ccccc6c(=O)c3c45)c2c1`, for which the TGI in assay [1] is 7.23 µM; in [2], 5.28 µM; in assay [3] it was greater than 14.1 µM; in assay [4] it was 6.52 µM; in [5] it was 5.37 µM; in assay [6] it was 1.55 µM. Moreover, the TGI in [7] is 5.86 µM; in [8], 1.73 µM; in [9] it was 8.52 µM; in [10], 7.55 µM.

Turning to `NS(=O)(=O)c1ccc(NNc2c3ccccc3nc3c(C(=O)Nc4ccc(S(N)(=O)=O)cc4)cccc23)cc1`, the TGI in assay [1] was 54.4 µM; in assay [2] it was greater than 100 µM; in [3], greater than 100 µM; in [4], greater than 100 µM; in assay [5], greater than 100 µM; in assay [6], greater than 100 µM. Moreover, the TGI in [7] is greater than 100 µM; in assay [8] it was 50.8 µM; in assay [9] it was greater than 100 µM; in [10] it was greater than 100 µM.
